The record followed here is patent publication US20110281869A1, “TETRAHYDROISOQUINOLINES AS ANTIMALARIAL AGENTS” (priority 2008, published 2011).

Molecules are shown by their SMILES.

One assay deals with P. falciparum K1. Kind of assay: Plasmodium falciparum in vitro assay ([3H] hypoxanthine incorporation). It counts as cell-based. To be noted: Plasmodium falciparum, K1, read-out: IC50 (nM) on K1. How it is done:
In vitro antimalarial activity: Plasmodium falciparum in vitro assay In vitro activity against erythrocytic stages of P. falciparum is determined using a [^3H] hypoxanthine incorporation assay. One strain resistant to chloroquine and pyrimethamine (P. falciparum K1) is used in the assays, and all test compounds are compared for activity with the standard drugs chloroquine (sigma C6628) and artemisinin (sigma-36, 159-3). Compounds are diluted in DMSO to 1 mM and added to parasite cultures incubated in RPMI 1640 medium without hypoxanthine, supplemented with HEPES (5.94 g/L), NaHCO3 (2.1 g/L), neomycin (100 U/mL), Albumax (5 g/L) and washed human red cells at 2.5% hematocrit (0.3% parasitaemia). Seven serial doubling dilutions of each drug are prepared in 96-well microtitre plates and incubated in a humidifying atmosphere at 37° C.; 4% CO2, 3% O2, 93% N2.
After 48 h, 50 μl of [^3H] hypoxanthine (0.5 μCi) is added to each well of a plate. The plates are incubated for a further 24 h under the same conditions. The plates are then harvested with a Betaplate cell harvester (Wallac) and washed with distilled water. The dried filters are inserted into a plastic foil with 10 mL of scintillation fluid, and counted in a Betaplate liquid scintillation counter. IC50 values are calculated from sigmoidal inhibition curves using Microsoft Excel.
The term IC50 denotes the concentration at which inhibition is half-maximal. Take `CCN(CC)CCCC(C)Nc1ccnc2cc(Cl)ccc12` (stereo not shown) [Chloroquine, chloroquine, reference compound]: the IC50 turned out to be 300 nM.

Still in this assay, the particulars now being: Plasmodium falciparum; erythrocytic stages, strain K1 resistant to chloroquine and pyrimethamine, human red cells; read-out: IC50 (nM) on K1.
In the case of `Cc1ncsc1C=CC(=O)N(Cc1ccc(-n2cncn2)cc1)[C@@H](Cc1ccccc1)C(=O)N1CCc2ccccc2C1` [Example 178, (S)—N-[1-Benzyl-2-(3,4-dihydro-1H-isoquinolin-2-yl)-2-oxo-ethyl]-3-(4-methyl-thiazol-5-yl)-N-(4-[1,2,4]-triazol-1-yl-benzyl)-acrylamide], the IC50 came out at 28 nM.

For `COc1ccc(C=CC(=O)N(Cc2ccc(-c3ccccn3)cc2)[C@@H](Cc2ccccc2)C(=O)N2CCc3ccccc3C2)cn1` [Example 62, (S)—N-[1-Benzyl-2-(3,4-dihydro-1H-isoquinolin-2-yl)-2-oxo-ethyl]-3-(6-methoxy-pyridin-3-yl)-N-(4-pyridin-2-yl-benzyl)-acrylamide], the IC50 stood at 10 nM.

`Cc1noc(C)c1C=CC(=O)N(Cc1ccc(-c2ccncc2)cc1)[C@@H](Cc1ccccc1)C(=O)N1CCc2ccccc2C1` [Example 241, (S)—N-[1-Benzyl-2-(3,4-dihydro-1H-isoquinolin-2-yl)-2-oxo-ethyl]-3-(3,5-dimethyl-isoxazol-4-yl)-N-(4-pyridin-4-yl-benzyl)-acrylamide]: the IC50 is 5 nM.

Take `Cc1nc(C)c(C=CC(=O)N(Cc2ccc(N3CCOCC3)cc2)[C@@H](Cc2ccccc2)C(=O)N2CCc3ccccc3C2)s1` [Example 251, (S)—N-[1-Benzyl-2-(3,4-dihydro-1H-isoquinolin-2-yl)-2-oxo-ethyl]-3-(2,4-dimethyl-thiazol-5-yl)-N-(4-morpholin-4-yl-benzyl)-acrylamide]: the IC50 came out at 42 nM.

As to `O=C([C@H](Cc1ccccc1)N(Cc1ccc(-c2ccccn2)cc1)C(=O)C=Cc1ccc(C(F)(F)F)cc1)N1CCc2c(F)cccc2C1` [Example 74, (S)—N-[1-Benzyl-2-(5-fluoro-3,4-dihydro-1H-isoquinolin-2-yl)-2-oxo-ethyl]-N-(4-pyridin-2-yl-benzyl)-3-(4-trifluoromethyl-phenyl)-acrylamide], the IC50 was 11 nM.

As for `Cc1ccc(C=CC(=O)N(Cc2ccc(-c3ccccn3)cc2)[C@@H](Cc2ccccc2)C(=O)N2CCc3ccccc3C2)cn1` [Example 59, (S)—N-[1-Benzyl-2-(3,4-dihydro-1H-isoquinolin-2-yl)-2-oxo-ethyl]-3-(6-methyl-pyridin-3-yl)-N-(4-pyridin-2-yl-benzyl)-acrylamide], the IC50 came out at 14 nM.

For the compound `COc1ncc(C=CC(=O)N(Cc2ccc(-c3cnccn3)cc2)[C@@H](Cc2ccccc2)C(=O)N2CCc3ccccc3C2)cn1` [Example 114, (S)—N-[1-Benzyl-2-(3,4-dihydro-1H-isoquinolin-2-yl)-2-oxo-ethyl]-3-(2-methoxy-pyrimidin-5-yl)-N-(4-pyrazin-2-yl-benzyl)-acrylamide], the IC50 was determined as 63 nM.

Take `O=C([C@H](Cc1ccccc1)N(Cc1ccc(-c2ccccn2)cc1)C(=O)/C=C/c1ccc(C(F)(F)F)cc1)N1CCc2ccccc2C1` [Example 1, (S)—N-[1-Benzyl-2-(3,4-dihydro-1H-isoquinolin-2-yl)-2-oxo-ethyl]-N-(4-pyridin-2-yl-benzyl)-3-(trifluoromethyl-phenyl)-acrylamide]: the IC50 worked out at 3.5 nM.

With `Cn1ccc(C=CC(=O)N(Cc2ccc(-c3ccncc3)cc2)[C@@H](Cc2ccccc2)C(=O)N2CCc3ccccc3C2)n1` [Example 243, (S)—N-[1-Benzyl-2-(3,4-dihydro-1H-isoquinolin-2-yl)-2-oxo-ethyl]-3-(1-methyl-1H-pyrazol-3-yl)-N-(4-pyridin-4-yl-benzyl)-acrylamide], the IC50 is less than 7.8 nM.

With `Cc1nc(C)c(C=CC(=O)N(Cc2ccc(-c3ccncc3)cc2)[C@@H](Cc2ccccc2)C(=O)N2CCc3ccccc3C2)s1` [Example 247, (S)—N-[1-Benzyl-2-(3,4-dihydro-1H-isoquinolin-2-yl)-2-oxo-ethyl]-3-(2,4-dimethyl-thiazol-5-yl)-N-(4-pyridin-4-yl-benzyl)-acrylamide], the IC50 was determined as 4 nM.

On to `Cn1cc(C=CC(=O)N(Cc2ccc(-c3cnccn3)cc2)[C@@H](Cc2ccccc2)C(=O)N2CCc3ccccc3C2)cn1` [Example 116, (S)—N-[1-Benzyl-2-(3,4-dihydro-1H-isoquinolin-2-yl)-2-oxo-ethyl]-3-(1-methyl-1H-pyrazol-4-yl)-N-(4-pyrazin-2-yl-benzyl)-acrylamide], for which the IC50 was determined as 67 nM.

For `O=C([C@H](Cc1ccccc1)N(Cc1ccc(-c2cncnc2)cc1)C(=O)C=Cc1ccc(C(F)(F)F)nc1)N1CCc2ccccc2C1` [Example 4, (S)—N-[1-Benzyl-2-(3,4-dihydro-1H-isoquinolin-2-yl)-2-oxo-ethyl]-N-(4-pyrimidin-5-yl-benzyl)-3-(6-trifluoromethyl-pyridin-3-yl)-acrylamide], the IC50 came out at 5 nM.

As for `Cc1nc(C)c(C=CC(=O)N(Cc2ccc(-c3cccnn3)cc2)[C@@H](Cc2ccccc2)C(=O)N2CCc3ccccc3C2)s1` [Example 145, (S)—N-[1-Benzyl-2-(3,4-dihydro-1H-isoquinolin-2-yl)-2-oxo-ethyl]-3-(2,4-dimethyl-thiazol-5-yl)-N-(4-pyridazin-3-yl-benzyl)-acrylamide], the IC50 came to 13 nM.

Consider `O=C([C@H](Cc1ccccc1)N(Cc1ccc(-c2nccs2)cc1)C(=O)C=Cc1ccc(C(F)(F)F)cc1)N1CCc2ccccc2C1` [Example 199, (S)—N-[1-Benzyl-2-(3,4-dihydro-1H-isoquinolin-2-yl)-2-oxo-ethyl]-N-(4-thiazol-2-yl-benzyl)-3-(4-trifluoromethyl-phenyl)-acrylamide], for which the IC50 was 4 nM.

In the case of `Cc1ccc(C=CC(=O)N(Cc2ccc(N3CCOCC3)cc2)[C@@H](Cc2ccccc2)C(=O)N2CCc3ccccc3C2)cn1` [Example 218, (S)—N-[1-Benzyl-2-(3,4-dihydro-1H-isoquinolin-2-yl)-2-oxo-ethyl]-3-(6-methyl-pyridin-3-yl)-N-(4-morpholin-4-yl-benzyl)-acrylamide], the IC50 was found to be 31 nM.

Take `Cc1ncc(C=CC(=O)N(Cc2ccc(-c3ccncc3)cc2)[C@@H](Cc2ccccc2)C(=O)N2CCc3ccccc3C2)n1C` [Example 246, (S)—N-[1-Benzyl-2-(3,4-dihydro-1H-isoquinolin-2-yl)-2-oxo-ethyl]-3-(2,3-dimethyl-3H-imidazol-4-yl)-N-(4-pyridin-4-yl-benzyl)-acrylamide]: the IC50 was 17 nM.

Consider `Cc1noc(C)c1C=CC(=O)N(Cc1ccc(-c2cncnc2)cc1)[C@@H](Cc1ccccc1)C(=O)N1CCc2ccccc2C1` [Example 235, (S)—N-[1-Benzyl-2-(3,4-dihydro-1H-isoquinolin-2-yl)-2-oxo-ethyl]-3-(3,5-dimethyl-isoxazol-4-yl)-N-(4-pyrimidin-5-yl-benzyl)-acrylamide], for which the IC50 came out at 26 nM.

In the case of `Cc1noc(C)c1C=CC(=O)N(Cc1ccc(N2CCOCC2)cc1)[C@@H](Cc1ccccc1)C(=O)N1CCc2ccccc2C1` [Example 224, (S)—N-[1-Benzyl-2-(3,4-dihydro-1H-isoquinolin-2-yl)-2-oxo-ethyl]-3-(3,5-dimethyl-isoxazol-4-yl)-N-(4-morpholin-4-yl-benzyl)-acrylamide], the IC50 is 18 nM.

On to `O=C(C(Cc1ccon1)N(Cc1ccc(-c2ccncc2)cc1)C(=O)C=Cc1ccc(C(F)(F)F)cc1)N1CCc2ccccc2C1` (racemic) [Example 87, rac-N-[2-(3,4-Dihydro-1H-isoquinolin-2-yl)-1-isoxazol-3-ylmethyl-2-oxo-ethyl]-N-(4-pyridin-4-yl-benzyl)-3-(4-trifluoromethyl-phenyl)-acrylamide], for which the IC50 worked out at 194 nM.

On to `Cc1ncsc1C=CC(=O)N(Cc1ccc(-c2ncccn2)cc1)[C@@H](Cc1ccccc1)C(=O)N1CCc2ccccc2C1` [Example 104, (S)—N-[1-Benzyl-2-(3,4-dihydro-1H-isoquinolin-2-yl)-2-oxo-ethyl]-3-(4-methyl-thiazol-5-yl)-N-(4-pyrimidin-2-yl-benzyl)-acrylamide], for which the IC50 amounted to 84 nM.

With `O=C([C@H](Cc1ccccc1)N(Cc1ccc(-c2cnccn2)cc1)C(=O)C=Cc1ccc(Cl)nc1)N1CCc2ccccc2C1` [Example 111, (S)—N-[1-Benzyl-2-(3,4-dihydro-1H-isoquinolin-2-yl)-2-oxo-ethyl]-3-(6-chloro-pyridin-3-yl)-N-(4-pyrazin-2-yl-benzyl)-acrylamide], the IC50 turned out to be 35 nM.

Consider `Cn1cc(C=CC(=O)N(Cc2ccc(-n3cncn3)cc2)[C@@H](Cc2ccccc2)C(=O)N2CCc3ccccc3C2)cn1` [Example 172, (S)—N-[1-Benzyl-2-(3,4-dihydro-1H-isoquinolin-2-yl)-2-oxo-ethyl]-3-(1-methyl-1H-pyrazol-4-yl)-N-(4-[1,2,4]-triazol-1-yl-benzyl)-acrylamide], for which the IC50 stood at 25 nM.

The same assay, now with this note: erythrocytic stages, strain K1 resistant to chloroquine and pyrimethamine, human red cells; read-out: IC50 (nM) on K1.
Regarding `CN(C)c1ccc(C=CC(=O)N(Cc2ccc(-c3ccccn3)cc2)[C@@H](Cc2ccccc2)C(=O)N2CCc3ccccc3C2)cc1` [Example 38, (S)—N-[1-Benzyl-2-(3,4-dihydro-1-H-isoquinolin-2-yl)-2-oxo-ethyl]-3-(4-dimethylamino-phenyl)-N-(4-pyridin-2-yl-benzyl)-acrylamide], the IC50 was found to be 10 nM.

`Cc1ccc(C=CC(=O)N(Cc2ccc(-c3ccccn3)cc2)[C@@H](Cc2ccccc2)C(=O)N2CCc3ccccc3C2)cc1` [Example 32, (S)—N-[1-Benzyl-2-(3,4-dihydro-1-H-isoquinolin-2-yl)-2-oxo-ethyl]-N-(4-pyridin-2-yl-benzyl)-3-p-tolyl-acrylamide]: the IC50 was 7.5 nM.
